Laboratory results as given in patent US20240174618A1, “SUBSTITUTED (2-HETEROARYLOXYPHENYL)SULFONATES, SALTS THEREOF AND THEIR USE AS HERBICIDAL AGENTS” (Bayer Aktiengesellschaft, priority 2021, published 2024).

Key:
Format in all cases: in vivo
Kochia scoparia (KCHSC) = assay: E. Herbicidal post-emergence efficacy, KCHSC
Outline: (§1)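 Greenhouse weeds were treated post-emergence at the one-leaf stage, 2-3 weeks after sowing in sandy loam, with WP or EC formulations sprayed as aqueous suspension/emulsion plus 0.5% additive at 600 l/ha, at 320 g/ha or less. Efficacy was rated visually after about 3 weeks versus untreated controls (100% = dead, 0% = like control).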

Viola tricolor (VIOTR) = assay: C. Herbicidal pre-emergence efficacy, VIOTR
Outline: (§2)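 Pre-emergence test: formulated compounds sprayed as aqueous suspension or emulsion with 0.5% additive at 600 l/ha onto soil covering sown seeds, at rates corresponding to 320 g/ha or less. After about 3 weeks in greenhouse, efficacy scored visually as percent versus untreated controls (100% = plants dead).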

[1] = system: Alopecurus myosuroides (ALOMY); assay: C. Herbicidal pre-emergence efficacy, ALOMY; details: scored after about 3 weeks
Outline: as §2

[2] = system: Amaranthus retroflexus (AMARE); assay: A. Herbicidal pre-emergence efficacy, AMARE
Outline: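 Pre-emergence soil-surface spray in sandy loam pots, WP/EC in water plus 0.5% additive, 600 L/ha. Visual % damage rating after about 3 weeks in greenhouse vs. untreated; 0% = control-like, 100% = dead plants. Rates up to 1280 g/ha.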

Veronica persica (VERPE) = assay: E. Herbicidal post-emergence efficacy, VERPE
Outline: as §1

Stellaria media (STEME) = assay: B. Herbicidal post-emergence efficacy, STEME
Outline: (§3)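 Weeds grown in sandy loam in greenhouse and sprayed at the one-leaf stage, 2–3 weeks after sowing, with WP or EC formulations plus 0.5% additive at 600 L/ha water. Injury rated visually versus untreated controls after about 3 weeks (100% = dead, 0% = like control); rates up to 1280 g/ha.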

Setaria viridis (SETVI) = assay: B. Herbicidal post-emergence efficacy, SETVI
Outline: as §3

[3] = system: Polygonum convolvulus (POLCO); assay: E. Herbicidal post-emergence efficacy, POLCO
Outline: as §1

Row | SMILES | Post-emergence efficacy against KCHSC in % (Kochia scoparia (KCHSC); application rate 80 g/ha) [%] | Post-emergence efficacy against KCHSC in % (Kochia scoparia (KCHSC); application rate 320 g/ha) [%] | Pre-emergence efficacy against VIOTR in % (Viola tricolor (VIOTR); application rate 80 g/ha) [%] | Pre-emergence efficacy against VIOTR in % (Viola tricolor (VIOTR); application rate 320 g/ha) [%] | Pre-emergence efficacy against ALOMY ([1]; 320 g/ha) [%] | Pre-emergence efficacy against AMARE in % ([2]; 80 g/ha) [%] | Pre-emergence efficacy against AMARE in % ([2]; 320 g/ha) [%] | Pre-emergence efficacy against AMARE in % ([2]; 1280 g/ha) [%] | Post-emergence efficacy against VERPE in % (Veronica persica (VERPE); application rate 80 g/ha) [%] | Post-emergence efficacy against VERPE in % (Veronica persica (VERPE); application rate 320 g/ha) [%] | Post-emergence efficacy against STEME (Stellaria media (STEME); 80 g/ha) [%] | Post-emergence efficacy against STEME (Stellaria media (STEME); 320 g/ha) [%] | Post-emergence efficacy against STEME (Stellaria media (STEME); 1280 g/ha) [%] | Post-emergence efficacy against SETVI (Setaria viridis (SETVI); 320 g/ha) [%] | Post-emergence efficacy against SETVI (Setaria viridis (SETVI); 1280 g/ha) [%] | Post-emergence efficacy against POLCO in % ([3]; application rate 80 g/ha) [%] | Post-emergence efficacy against POLCO in % ([3]; application rate 320 g/ha) [%] | Pre-emergence efficacy against ALOMY ([1]; 80 g/ha) [%]
1 | O=S(=O)(CCC(F)(F)F)Oc1c(Cl)cccc1Oc1ncc(Br)cn1 [Example I-32] | 90 | 100 | 100 | 100 | 100 | 90 | 90 | 100 | 100 | 100 | 100 | 100 | 100 | 90 | 100 | 80 | 100 | 
2 | O=S(=O)(CCC(F)(F)F)Oc1c(Cl)cccc1Oc1ncc(Cl)cn1 [Example I-38] | 100 | 100 | 100 | 100 | 100 | 100 | 100 | 100 | 100 | 100 | 90 | 90 | 90 |  | 90 | 100 | 100 | 
3 | O=S(=O)(CCCC(F)(F)F)Oc1c(F)cccc1Oc1ncc(Br)cn1 [Example I-41] | 100 | 100 | 100 | 100 | 100 | 100 | 100 | 100 | 100 | 100 | 90 | 90 | 90 | 90 | 90 | 100 | 100 | 
4 | O=S(=O)(CCCC(F)F)Oc1c(F)cccc1Oc1ncc(Cl)cn1 [Example I-56] | 100 | 100 | 100 | 100 | 100 | 100 | 100 | 100 | 100 | 100 | 90 | 90 | 90 | 90 | 90 |  | 100 | 100
5 | O=S(=O)(CCCC(F)(F)C(F)(F)F)Oc1c(F)cccc1Oc1ncc(Cl)cn1 [Example I-68] | 80 | 90 | 100 | 100 | 90 |  | 100 | 100 | 100 | 100 | 90 | 100 | 100 | 90 | 90 | 80 | 90 | 
6 | O=S(=O)(CC1CC(F)(F)C1)Oc1c(F)cccc1Oc1ncc(Cl)cn1 [Example I-53] | 90 | 90 | 100 | 100 | 100 | 100 | 100 | 100 | 100 | 100 | 90 | 90 | 90 | 90 | 90 | 100 | 100 | 90
7 | C=CCCS(=O)(=O)Oc1c(F)cccc1Oc1ncc(Cl)cn1 [Example I-50] | 80 | 100 |  | 90 | 90 | 90 | 90 | 100 | 90 | 100 |  |  |  |  | 90 |  | 100 | 
8 | O=S(=O)(CCCC(F)(F)F)Oc1c(Cl)cccc1Oc1ncc(Cl)cn1 [Example I-39] | 100 | 100 | 100 | 100 | 100 | 100 | 100 | 100 | 100 | 100 | 90 | 90 | 90 | 90 | 90 |  | 100 | 
9 | COCCS(=O)(=O)Oc1c(F)cccc1Oc1ncc(Cl)cn1 [Example I-52] | 90 | 100 | 100 | 100 | 100 | 90 | 100 | 100 | 100 | 100 |  |  | 90 |  | 90 |  | 80 | 
10 | O=S(=O)(CCCC(F)(F)F)Oc1c(F)cccc1Oc1ncc(Cl)cn1 [Example I-49] | 100 | 100 | 100 | 100 | 100 | 90 | 100 | 100 | 100 | 100 | 90 | 90 | 90 | 90 | 90 | 100 | 100 | 100
11 | O=S(=O)(CCC(F)(F)F)Oc1c(F)cccc1Oc1ncc(Cl)cn1 [Example I-48] | 100 | 100 | 100 | 100 | 100 | 90 | 90 | 100 | 100 | 100 | 90 | 90 | 90 | 90 | 90 | 100 | 100 | 100
12 | O=S(=O)(CCCC(F)(F)F)Oc1c(Cl)cccc1Oc1ncc(Br)cn1 [Example I-34] | 100 | 100 | 100 | 100 | 80 | 90 | 90 | 100 | 100 | 100 | 100 | 100 | 100 |  | 90 |  | 100 | 
